In BindingDB's records for doi:10.1021/jm00120a002 (Merck Sharp & Dohme Research Laboratories, 1989) one finds IC50 data, which are given here for 72 compounds.

In general, IC50 refers to the concentration at which inhibition is half-maximal.

This experiment can be described thus: Half-maximal inhibition of [125I]gastrin binding to guinea pig gastric glands.
Take `CC1(C(=O)NC2N=C(c3ccccc3F)c3ccccc3NC2=O)C=Cc2ccccc21` (configuration not stated): the IC50 was over 10 µM.
Turning to `O=C(NC1N=C(c2ccccc2)c2ccccc2NC1=O)c1ccc(Cl)c(Cl)c1` (configuration not stated), the IC50 was 25 µM.
The compound `O=C1Nc2ccccc2C(c2ccccc2)=NC1NCCc1c[nH]c2ccccc12` (configuration not stated) registered an IC50 of over 100 µM.
For `O=C(NC1N=C(c2ccccc2)c2ccccc2NC1=O)c1ccc(O)cc1` (configuration not stated), the IC50 was 31 µM.
Consider `CC(C)(C)OC(=O)N[C@H](Cc1c[nH]c2ccccc12)C(=O)NC1N=C(c2ccccc2)c2ccccc2NC1=O` (some centres not stated), for which the IC50 was over 100 µM.
As to `CN1C(=O)[C@@H](NC(=O)/C=C/c2ccccc2)N=C(c2ccccc2)c2ccccc21`, the IC50 stood at 0.18 µM.
Take `O=C(NC1N=C(c2ccccc2F)c2ccccc2NC1=O)c1cc2cc(Cl)ccc2[nH]1` (configuration not stated) [5-Chloro-1H-indole-2-carboxylic acid [5-(2-fluoro-phenyl)-2-oxo-2,3-dihydro-1H-benzo[e][1,4]diazepin-3-yl]-amide]: the IC50 is 20 µM.
In the case of `CN1C(=O)[C@@H](NC(=O)c2ccc(Cl)cc2)N=C(c2ccccc2F)c2ccccc21` it was 0.8 µM; in that of `CN1C(=O)[C@H](NC(=O)c2ccc(C(F)(F)F)cc2)N=C(c2ccccc2)c2ccccc21`, 4.2 µM.
`CN1C(=O)C(NC(=O)[C@@H](Cc2ccccc2)NC(=O)OC(C)(C)C)N=C(c2ccccc2)c2ccccc21` (some centres not stated) gave an IC50 of 26 µM.
`CN1C(=O)[C@@H](NC(=O)c2cc3ccccc3[nH]2)N=C(c2ccccc2F)c2ccccc21` had an IC50 of 0.028 µM.
`CN1C(=O)[C@H](NC(=O)c2ccccc2Cl)N=C(c2ccccc2)c2ccccc21` had an IC50 of 7.5 µM.
Compound `O=C(NC1N=C(c2ccccc2F)c2ccccc2NC1=O)c1cc2ccccc2[nH]1` (configuration not stated) gave an IC50 of 4.6 µM.
As to `O=C(/C=C/c1ccccc1)NC1N=C(c2ccccc2F)c2ccccc2NC1=O` (configuration not stated), the 50% inhibitory concentration (IC50) worked out at 3.8 µM.
In the case of `O=C(Cc1cccc2sccc12)NC1N=C(c2ccccc2F)c2ccccc2NC1=O` (configuration not stated), the IC50 is 3.9 µM.
As to `CCOC(=O)CN1C(=O)C(NC(=O)c2ccccc2Cl)N=C(c2ccccc2F)c2ccccc21` (configuration not stated) [[3-(2-Chloro-benzoylamino)-5-(2-fluoro-phenyl)-2-oxo-2,3-dihydro-benzo[e][1,4]diazepin-1-yl]-acetic acid ethyl ester], the concentration for half-maximal inhibition (IC50) was found to be 1.3 µM.
As for `CN(C(=O)c1cc2ccccc2[nH]1)C1N=C(c2ccccc2)c2ccccc2NC1=O` (configuration not stated), the 50% inhibitory concentration (IC50) was over 10 µM.
The compound `O=C(O)CN1C(=O)C(NC(=O)c2cc3ccccc3[nH]2)N=C(c2ccccc2)c2ccccc21` (configuration not stated) [CCK antagonist synthetic 20] gave a concentration for half-maximal inhibition (IC50) of 0.65 µM.
With `O=C1Nc2ccccc2C(c2ccccc2F)=NC1NC(=O)C(O)c1ccccc1` (configuration not stated) the figure was over 10 µM; with `CCOC(=O)CN1C(=O)C(NC(=O)c2cc3ccccc3[nH]2)N=C(c2ccccc2F)c2ccccc21` (configuration not stated), 0.12 µM.
Turning to `O=C(NC1N=C(c2ccccc2)c2ccccc2NC1=O)C1Cc2ccccc2N1` (configuration not stated), the IC50 was 110 µM.
With `O=C(NC1N=C(c2ccccc2F)c2ccccc2NC1=O)c1ccc[nH]1` (configuration not stated), the IC50 was determined as 25 µM.
Consider `CN1C(=O)[C@H](NC(=O)c2cc3ccccc3[nH]2)N=C(c2ccccc2F)c2ccccc21`, for which the concentration for half-maximal inhibition (IC50) was found to be 0.24 µM.
Turning to `O=C(NC1N=C(c2ccccc2)c2ccccc2NC1=O)c1c[nH]c2ccccc12` (configuration not stated), the IC50 was 18 µM.
Consider `CN1C(=O)C(NC(=O)c2ccsc2)N=C(c2ccccc2F)c2ccccc21` (configuration not stated), for which the half-inhibitory concentration (IC50) came out at 11 µM.
With `O=C(NC1N=C(c2ccccc2)c2ccccc2NC1=O)c1ccc2ccccc2c1` (configuration not stated), the IC50 was found to be 14 µM.
Regarding `O=C(NC1N=C(c2ccccc2)c2ccccc2NC1=O)c1cccc2ccccc12` (configuration not stated), the IC50 was found to be 29 µM.
In turn, `CN1C(=O)[C@@H](NC(=O)c2ccc(C#N)cc2)N=C(c2ccccc2F)c2ccccc21` returned an IC50 of 9 µM.
Turning to `O=C(NC1N=C(c2ccccc2F)c2ccccc2NC1=O)c1ccc(Cl)cc1` (configuration not stated), the concentration for half-maximal inhibition (IC50) was 14 µM.
In the case of `O=C(O)CN1C(=O)C(NC(=O)c2cc3ccccc3[nH]2)N=C(c2ccccc2F)c2ccccc21` (configuration not stated), the half-maximal inhibitory concentration (IC50) was 0.39 µM.
In turn, `O=C(NC1N=C(c2ccccc2F)c2ccccc2NC1=O)c1cc2cc(F)ccc2[nH]1` (configuration not stated) [5-Fluoro-1H-indole-2-carboxylic acid [5-(2-fluoro-phenyl)-2-oxo-2,3-dihydro-1H-benzo[e][1,4]diazepin-3-yl]-amide: 0.23CHCL3] returned an IC50 of over 10 µM.
In the case of `O=C(NC1N=C(c2ccccc2)c2ccccc2NC1=O)c1ccccc1Cl` (configuration not stated) [2-Chloro-N-(2-oxo-5-phenyl-2,3-dihydro-1H-benzo[e][1,4]diazepin-3-yl)-benzamide. 0.02CHCl3] it was 52 µM; in that of `O=C(NC1N=C(c2ccccc2F)c2ccccc2NC1=O)c1cc2ccccc2o1` (configuration not stated), 11 µM; in that of `O=C(O)CN1C(=O)C(NC(=O)c2ccc(Cl)cc2)N=C(c2ccccc2F)c2ccccc21` (configuration not stated), 8.2 µM.
For `CN1C(=O)[C@@H](NC(=O)c2ccc(C(F)(F)F)cc2)N=C(c2ccccc2F)c2ccccc21`, the IC50 turned out to be 0.44 µM.
With `O=C(CCc1c[nH]c2ccccc12)NC1N=C(c2ccccc2)c2ccccc2NC1=O` (configuration not stated) the figure was 17 µM; with `CN1C(=O)[C@@H](NC(=O)c2ccccc2I)N=C(c2ccccc2)c2ccccc21`, 38 µM.
The compound `CN1C(=O)C(NC(=O)C(Cc2ccccc2)NC(=O)OC(C)(C)C)N=C(c2ccccc2F)c2ccccc21` (configuration not stated) gave an IC50 of 2.9 µM.
`CCOC(=O)CN1C(=O)C(NC=O)N=C(c2ccccc2)c2ccccc21` (configuration not stated) came in with an IC50 of 25 µM.
The compound `O=C(Cc1c[nH]c2ccccc12)NC1N=C(c2ccccc2)c2ccccc2NC1=O` (configuration not stated) showed an IC50 of 32 µM.
Turning to `Cn1c(C(=O)NC2N=C(c3ccccc3F)c3ccccc3NC2=O)cc2ccccc21` (configuration not stated), the IC50 was found to be 6.3 µM.
The compound `CN1C(=O)[C@@H](NC(=O)c2ccccc2I)N=C(c2ccccc2F)c2ccccc21` yielded a half-maximal inhibitory concentration (IC50) of 11 µM.
Compound `CC(C)CCC(=O)N[C@H]1N=C(c2ccccc2)c2ccccc2N(C)C1=O` yielded a half-inhibitory concentration (IC50) of 130 µM.
With `O=C(NC1N=C(c2ccccc2)c2ccccc2NC1=O)c1cc2ccccc2[nH]1` (configuration not stated) the figure was 4 µM; with `O=C(NC1N=C(c2ccccc2)c2ccccc2NC1=O)c1cccc(Cl)c1` (configuration not stated) [3-Chloro-N-(2-oxo-5-phenyl-2,3-dihydro-1H-benzo[e][1,4]diazepin-3-yl)-benzamide:0.5CHCl3], 19 µM; with `O=C(NC1N=C(c2ccccc2)c2ccccc2NC1=O)c1cc(Cl)cc(Cl)c1` (configuration not stated), 180 µM.
`O=C1Nc2ccccc2C(c2ccccc2F)=NC1NCc1cc2ccccc2[nH]1` (configuration not stated) came in with an IC50 of over 10 µM.
For `CN1C(=O)C(NC(=O)c2ccc(C(C)(C)C)cc2)N=C(c2ccccc2F)c2ccccc21` (configuration not stated), the IC50 was determined as 6.4 µM.
With `O=C(NC1N=C(c2ccccc2F)c2ccccc2NC1=O)c1ccccc1Cl` (configuration not stated) [2-Chloro-N-[5-(2-fluoro-phenyl)-2-oxo-2,3-dihydro-1H-benzo[e][1,4]diazepin-3-yl]-benzamide: 0.1C4H8O2] the figure was 18 µM; with `COc1ccc2[nH]c(C(=O)NC3N=C(c4ccccc4F)c4ccccc4NC3=O)cc2c1` (configuration not stated), over 10 µM; with `CC(C)(C)OC(=O)N[C@H](Cc1ccccc1)C(=O)NC1N=C(c2ccccc2)c2ccccc2NC1=O` (some centres not stated), over 100 µM.
Consider `CN1C(=O)[C@@H](NC(=O)c2ccccc2Cl)N=C(c2ccccc2)c2ccccc21`, for which the IC50 was determined as 130 µM.
Take `CN1C(=O)C(NC(=O)c2cc3ccccc3[nH]2)N=C(c2ccccc2F)c2ccccc21` (configuration not stated) [1H-Indole-2-carboxylic acid [5-(2-fluoro-phenyl)-1-methyl-2-oxo-2,3-dihydro-1H-benzo[e][1,4]diazepin-3-yl]-amide]: the IC50 is 0.19 µM.
Compound `CCCCCc1ccc(C(=O)NC2N=C(c3ccccc3)c3ccccc3NC2=O)cc1` (configuration not stated) showed a concentration for half-maximal inhibition (IC50) of over 100 µM.
Consider `CN1C(=O)[C@@H](NC(=O)c2ccc(I)cc2)N=C(c2ccccc2F)c2ccccc21`, for which the half-maximal inhibitory concentration (IC50) turned out to be 0.53 µM.
For `CN1C(=O)C(NC(=O)c2ccccc2Cl)N=C(c2ccccc2)c2ccccc21` (configuration not stated), the 50% inhibitory concentration (IC50) was found to be 30 µM.
`CSc1ccc(C(=O)NC2N=C(c3ccccc3)c3ccccc3NC2=O)cc1` (configuration not stated) had a half-inhibitory concentration (IC50) of 8 µM.
In the case of `CN1C(=O)[C@@H](NC(=O)c2cccc(Br)c2)N=C(c2ccccc2F)c2ccccc21` it was 0.75 µM; in that of `N#Cc1ccc(C(=O)NC2N=C(c3ccccc3)c3ccccc3NC2=O)cc1` (configuration not stated) [4-Cyano-N-(2-oxo-5-phenyl-2,3-dihydro-1H-benzo[e][1,4]diazepin-3-yl)-benzamide], 22 µM; in that of `O=C(NC1N=C(c2ccccc2F)c2ccccc2NC1=O)c1cc2cc(O)ccc2[nH]1` (configuration not stated) [5-Hydroxy-1H-indole-2-carboxylic acid [5-(2-fluoro-phenyl)-2-oxo-2,3-dihydro-1H-benzo[e][1,4]diazepin-3-yl]-amide], 29 µM.
For the compound `O=C(NC1N=C(c2ccccc2F)c2ccccc2NC1=O)c1ccc([N+](=O)[O-])cc1` (configuration not stated), the IC50 is over 10 µM.
In turn, `CCCc1ccc(C(=O)NC2N=C(c3ccccc3)c3ccccc3NC2=O)cc1` (configuration not stated) registered an IC50 of 80 µM.
Consider `CN1C(=O)[C@@H](NC(=O)c2ccc(Br)cc2)N=C(c2ccccc2)c2ccccc21`, for which the IC50 was found to be 0.8 µM.
The compound `O=C(NC1N=C(c2ccccc2F)c2ccccc2NC1=O)c1ccccc1` (configuration not stated) had an IC50 of 28 µM.
In the case of `CN1C(=O)C(N(C)C(=O)c2ccccc2Cl)N=C(c2ccccc2)c2ccccc21` (configuration not stated), the IC50 was over 100 µM.
Compound `O=C(NC1N=C(c2ccccc2F)c2ccccc2NC1=O)c1ccc(C(F)(F)F)cc1` (configuration not stated) gave an IC50 of 9.5 µM.
In turn, `CN1C(=O)[C@H](NC(=O)[C@H](N)Cc2ccccc2)N=C(c2ccccc2)c2ccccc21` [(R)-2-amino-N-((R)-1-methyl-2-oxo-5-phenyl-2,3-dihydro-1H-benzo[e][1,4]diazepin-3-yl)-3-phenylpropanamide] showed an IC50 of 55 µM.
Regarding `O=C(NC1N=C(c2ccccc2F)c2ccccc2NC1=O)c1ccsc1` (configuration not stated), the IC50 was over 10 µM.
`CC(C)C(=O)N[C@H]1N=C(c2ccccc2)c2ccccc2N(C)C1=O` came in with an IC50 of 73 µM.
Turning to `O=C(NC1N=C(c2ccccc2)c2ccccc2NC1=O)c1ccc(C(F)(F)F)cc1` (configuration not stated), the 50% inhibitory concentration (IC50) was found to be 36 µM.
With `CN1C(=O)C(NC(=O)c2ccc(Cl)cc2)[N+]([O-])=C(c2ccccc2F)c2ccccc21` (configuration not stated) the figure was 2.4 µM.
Compound `CN1C(=O)C(NC(=O)c2ccc(Br)cc2)N=C(c2ccccc2)c2ccccc21` (configuration not stated) [4-Bromo-N-(1-methyl-2-oxo-5-phenyl-2,3-dihydro-1H-benzo[e][1,4]diazepin-3-yl)-benzamide:0.05C3H6O] registered an IC50 of 1.7 µM.
